Experimental data taken from patent US12492196B2, “Thienyloxazolones and analogues” (Bayer Aktiengesellschaft, priority 2019, dated 2025).
Marks after values point to notes of the source that are not given here.

Columns and labels:
Uromyces appendiculatus = experiment: In vivo preventive test on Uromyces appendiculatus (bean rust); settings: for pest or weed control at 500 ppm / pest or weed control at 31 ppm / pest or weed control at 125 ppm: Uromyces appendiculatus, 240 h, bean, evaluated 10 days after inoculation, read-out: efficacy; for pest or weed control at 500 ppm: 500 ppm of active ingredient; for pest or weed control at 31 ppm: 31 ppm of active ingredient; for pest or weed control at 125 ppm: 125 ppm of active ingredient
Procedure: (§1) The tested active ingredients were prepared by homogenization in a mixture of acetone/Dimethyl sulfoxide/Tween®, and then diluted with water to obtain the desired active material concentration.
The young plants of bean were treated by spraying the active ingredient prepared as described above.
Control plants were treated only with an aqueous solution of acetone/Dimethyl sulfoxide/Tween®.
After 72 hours, the plants were contaminated by spraying the leaves with an aqueous suspension of Uromyces appendiculatus spores. The contaminated bean plants were incubated for 24 hours at 20° C. and at 100% relative humidity and then for 9 days at 20° C. and at 70-80% relative humidity.
The test was evaluated 10 days after the inoculation. 0% means an efficacy which corresponds to that of the control plants while an efficacy of 100% means that no disease was observed.
Compound CMP1 was tested in an in vivo preventive test on Uromyces appendiculatus (bean rust) in the same conditions as described in Example G.

[1] = system: Xanthomonas campestris pv. campestris; experiment: In vivo preventive test on Xanthomonas campestris pv. campestris (black rot on cabbage); settings: for pest or weed control at 31 ppm / pest or weed control at 125 ppm: Xanthomonas campestris, cabbage, evaluated 8 or 10 days after inoculation, read-out: efficacy; for pest or weed control at 31 ppm: 31 ppm of active ingredient; for pest or weed control at 125 ppm: 125 ppm of active ingredient
Procedure: as §1
(§2) The young plants of cabbage were treated by spraying the active ingredient prepared as described above. Control plants were treated only with an aqueous solution of acetone/Dimethyl sulfoxide/Tween®.
After 72 hours, the plants were contaminated by spraying the leaves with an aqueous bacteria suspension of Xanthomonas campestris pv. campestris. The contaminated cabbage plants were incubated for 8 or 10 days at 27° C. at 95% relative humidity.
The test was evaluated 8 or 10 days after the inoculation. 0% means an efficacy which corresponds to that of the control plants while an efficacy of 100% means that no disease was observed.
Compound CMP1 was tested in an in vivo preventive test on Xanthomonas campestris pv. campestris (black rot on cabbage) in the same conditions as described in Example F.

Peronospora parasitica = experiment: In vivo preventive test on Peronospora parasitica (crucifer downy mildew); settings: Hyaloperonospora parasitica, 120 h; 125 ppm of active ingredient; cabbage; evaluated 5 days after inoculation; read-out: efficacy
Procedure: as §1, §2
After 72 hours, the plants were contaminated by spraying the leaves with an aqueous suspension of Peronospora parasitica spores. The contaminated cabbage plants were incubated for 5 days at 20° C. and at 100% relative humidity.
The test was evaluated 5 days after the inoculation. 0% means an efficacy which corresponds to that of the control plants while an efficacy of 100% means that no disease was observed.

[2] = system: Colletotrichum lindemuthianum; experiment: In vivo preventive test on Colletotrichum lindemuthianum (Antrachnose on bean); settings: for pest or weed control at 500 ppm / pest or weed control at 31 ppm: Colletotrichum lindemuthianum, 144 h, bean, evaluated 6 days after inoculation, read-out: efficacy; for pest or weed control at 500 ppm: 500 ppm of active ingredient; for pest or weed control at 31 ppm: 31 ppm of active ingredient
Procedure: The tested active ingredients were prepared by homogenization in a mixture of acetone/Dimethyl sulfoxide/Tween®, and then diluted with water to obtain the desired active material concentration. The young plants of bean were treated by spraying the active ingredient prepared as described above. Control plants were treated only with an aqueous solution of acetone/Dimethyl sulfoxide/Tween®.
After 72 hours, the plants were contaminated by spraying the leaves with an aqueous suspension of Colletotrichum lindemuthianum spores. The contaminated bean plants were incubated for 24 hours at 20° C. and at 100% relative humidity and then for 5 days at 20° C. and at 90% relative humidity.
The test was evaluated 6 days after the inoculation. 0% means an efficacy which corresponds to that of the control plants while an efficacy of 100% means that no disease was observed.
Compound CMP1 was tested in an in vivo preventive test on Colletotrichum lindemuthianum (Antrachnose on bean) in the same conditions as described in Example D.

[3] = Log P by HPLC on reversed phase columns (EEC directive 79/831 Annex V.A8); assay type: physicochemical
Procedure: In the above table, measurement of Log P values was performed according to EEC directive 79/831 Annex V.A8 by HPLC (High Performance Liquid Chromatography) on reversed phase columns with the following methods: • [^a] Log P value is determined by measurement of LC-UV, in an acidic range, with 0.1% formic acid in water and acetonitrile as eluent (linear gradient from 10% acetonitrile to 95% acetonitrile). • [^b] Log P value is determined by measurement of LC-UV, in a neutral range, with 0.001 molar ammonium acetate solution in water and acetonitrile as eluent (linear gradient from 10% acetonitrile to 95% acetonitrile). • [^c] Log P value is determined by measurement of LC-UV, in an acidic range, with 0.1% phosphoric acid and acetonitrile as eluent (linear gradient from 10% acetonitrile to 95% acetonitrile).
If more than one Log P value is available within the same method, all the values are given and separated by “+”.
Calibration was done with straight-chain alkan2-ones (with 3 to 16 carbon atoms) with known Log P values (measurement of Log P values using retention times with linear interpolation between successive alkanones). Lambda-max-values were determined using UV-spectra from 200 nm to 400 nm and the peak values of the chromatographic signals.

[4] = system: salicylate responsive promoter sequence of the PR1 (pathogenesis-related protein I) gene (AT2G14610); experiment: Induction of defense gene expression in Arabidopsis thaliana (PR1 promoter-GFP reporter plants); assay type: in vivo; settings: 72 h, 3rd day after spraying, mock treated leaves set as 1.00, read-out: relative fluorescence value; for fold induction at 75 ppm: 75 ppm of compound
Procedure: Arabidopsis thaliana reporter plants containing the coding sequence of a green fluorescent protein (GFP) linked to the salicylate responsive promoter sequence of the PR1 (pathogenesis-related protein I) gene (AT2G14610) were grown for five days and then sprayed with compounds. On the 3rd day after spraying, plant fluorescence was assessed with a MacroFluo instrument from Leica Microsystems (Wetzlar, Germany). Fluorescences were quantified with the Meta-Morph Microscopy Automation & Image Analysis Software (Molecular Devices, Sunnyvale, Calif., United States).
Background fluorescence in mock treated leaves was set as 1.00.

[5] = system: Colletotrichum lindemuthianum; experiment: Colletotrichum lindemuthianum in vitro cell test; assay type: cell-based; settings: 144 h, 20 ppm of active ingredient, 6 days incubation, read-out: efficacy (direct activity, inhibition of fungal growth)
Procedure: Solvent: DMSO Culture medium: 14.6 g anhydrous D-glucose (VWR), 7.1 g Mycological Peptone (Oxoid), 1.4 g granulated Yeast Extract (Merck), QSP 1 liter Inoculum: spores suspension Fungicides were solubilized in DMSO and the solution used to prepare the required range of concentrations. The final concentration of DMSO used in the assay was ≤1%. A spore suspension of C. lindemuthianum was prepared and diluted to the desired spore density. Fungicides were evaluated for their ability to inhibit spores germination and mycelium growth in liquid culture assay. The compounds were added in the desired concentration to the culture medium with spores. After 6 days incubation, fungi-toxicity of compounds was determined by spectrometric measurement of mycelium growth. Inhibition of fungal growth was determined by comparing the absorbance values in wells containing the fungicides with the absorbance in control wells without fungicides.

[6] = system: Xanthomonas campestris pv. campestris; experiment: Xanthomonas campestris pv. campestris in vitro cell test; assay type: cell-based; settings: 20 ppm of active ingredient, 24 h incubation, read-out: efficacy (direct activity, inhibition of bacteria growth)
Procedure: Solvent: DMSO Culture medium: LB broth medium (Luria Broth Miller) Sigma Inoculum: bacteria suspension Compounds were solubilized in DMSO and the solution used to prepare the required range of concentrations. The final concentration of DMSO used in the assay was ≤1%. Inoculum was prepared from a pre-culture of bacteria grown in liquid medium and diluted to the desired optical density (OD). Compounds were evaluated for their ability to inhibit bacteria growth in liquid culture assay. The compounds were added in the desired concentrations to culture medium containing the bacteria suspension. After 24 h of incubation, the efficacy of compounds was determined by spectrometric measurement of bacteria growth. Inhibition was determined by comparing the absorbance values in wells containing the compounds with the absorbance in control wells without active ingredients.

[7] = reversed phase HPLC columns, method [a]: LC-UV, acidic range, 0.1% formic acid in water and acetonitrile as eluent

Row | Structure (SMILES) | pest or weed control at 500 ppm (Uromyces appendiculatus) [%] | pest or weed control at 31 ppm [1] [%] | pest or weed control at 125 ppm (Peronospora parasitica) [%] | pest or weed control at 500 ppm [2] [%] | chromatographic logP [3, 7] | fold induction at 75 ppm [4] | fold induction at 300 ppm [4] | pest or weed control at 31 ppm (Uromyces appendiculatus) [%] | pest or weed control at 125 ppm (Uromyces appendiculatus) [%] | inhibition at 20 ppm [5] [%] | pest or weed control at 125 ppm [1] [%] | inhibition at 20 ppm [6] [%] | chromatographic logP ([3]; given in preparation examples, method not marked) | pest or weed control at 31 ppm [2] [%] | Efficacy (%) at 31 ppm (Uromyces appendiculatus; 31 ppm, arithmetic mean of 3 tests, conditions of Example G) | Efficacy (%) at 125 ppm (Uromyces appendiculatus; 125 ppm, arithmetic mean of 3 tests, conditions of Example G) | Efficacy (%) at 31 ppm ([1]; 31 ppm, arithmetic mean of 4 tests, conditions of Example F) | Efficacy (%) at 125 ppm ([1]; 125 ppm, arithmetic mean of 4 tests, conditions of Example F) | Efficacy (%) at 31 ppm ([2]; 31 ppm, conditions of Example D) [%]
1 | O=C1OC(c2cc(Br)c(C(F)(F)F)s2)=NC12CC2 [I.26] | 90 to 100 | 70 to 79 | 90 to 100 | 70 to 79 | 3.98 | – | – | – | – | – | – | – | – | – | – | – | – | – | –
2 | Cc1c(C2=NC3(CC3)C(=O)O2)sc(C#N)c1Br [I.06, 3-bromo-4-methyl-5-(7-oxo-6-oxa-4-azaspiro[2.4]hept-4-en-5-yl)thiophene-2-carbonitrile] | 90 to 100 | 90 to 100 | 90 to 100 | 90 to 100 | – | > 2 | > 2 | 70 to 79 | 70 to 79 | ≤ 30 | 90 to 100 | ≤ 30 | 3.37 | – | – | – | – | – | –
3 | O=C1OC(c2sc(Br)c(Br)c2F)=NC12CCC2 [I.13] | 90 to 100 | 90 to 100 | 90 to 100 | 90 to 100 | 4.02 | – | – | – | 90 to 100 | ≤ 30 | 80 to 89 | ≤ 30 | – | – | – | – | – | – | –
4 | O=C1OC(c2sc(Cl)c(Cl)c2Br)=NC12CCC2 [I.22] | – | – | 90 to 100 | – | 4.55 | – | – | 90 to 100 | 90 to 100 | ≤ 30 | – | ≤ 30 | – | 80 to 89 | – | – | – | – | –
5 | Cc1c(C2=NC3(CC3)C(=O)O2)sc(Cl)c1Br [I.11] | 90 to 100 | 70 to 79 | 90 to 100 | 90 to 100 | 4.39 | > 2 | – | 80 to 89 | 90 to 100 | ≤ 30 | 90 to 100 | ≤ 30 | – | – | – | – | – | – | –
6 | O=C1OC(c2sc(Cl)c(Br)c2Br)=NC12CC2 [I.08] | 90 to 100 | 80 to 89 | 90 to 100 | 90 to 100 | 4.12 | > 2 | > 2 | 90 to 100 | 90 to 100 | ≤ 30 | 70 to 79 | ≤ 30 | – | – | – | – | – | – | –
7 | Cc1c(C2=NC3(CC3)C(=O)O2)sc(Br)c1Cl [I.12] | 90 to 100 | 70 to 79 | 90 to 100 | 80 to 89 | 4.32 | – | > 2 | – | 90 to 100 | ≤ 30 | 90 to 100 | ≤ 30 | – | – | – | – | – | – | –
8 | O=C1OC(c2cc(Br)c(Br)s2)=NC12CC2 [CMP1, reference compound] | – | < 40 | – | – | – | – | – | < 40 | 42 | – | < 40 | – | – | < 20 | 32* % | 42* % | 35* % | 37* % | 19
9 | O=C1OC(c2sc(Cl)c(Br)c2Cl)=NC12CCC2 [I.25] | – | – | – | – | 4.47 | – | – | 90 to 100 | 90 to 100 | ≤ 30 | – | ≤ 30 | – | 70 to 79 | – | – | – | – | –
